Here are results for 19 molecules from article PMC3925373 (Bioorganic & medicinal chemistry, 2013).

Test [1] has as its target T1, Human matrix metalloprotease-1 (Homo sapiens, UniProt P03956).
T1 sequence (P03956 100-469): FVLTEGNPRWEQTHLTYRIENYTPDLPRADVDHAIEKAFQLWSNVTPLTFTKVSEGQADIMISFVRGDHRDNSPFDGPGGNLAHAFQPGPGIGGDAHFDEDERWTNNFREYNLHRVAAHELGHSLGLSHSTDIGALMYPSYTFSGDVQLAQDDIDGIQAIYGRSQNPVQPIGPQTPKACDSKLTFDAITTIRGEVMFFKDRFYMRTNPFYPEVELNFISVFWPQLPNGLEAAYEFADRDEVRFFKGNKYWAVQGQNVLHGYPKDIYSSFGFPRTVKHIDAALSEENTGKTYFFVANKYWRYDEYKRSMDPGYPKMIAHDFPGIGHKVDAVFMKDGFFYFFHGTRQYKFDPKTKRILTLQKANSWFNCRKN
The test can be described thus: Human MMP-1 FRET assay. Type of test: biochemical.

For test [2], the target named is Bacillus anthracis lethal factor (Bacillus anthracis, UniProt P15917). The test can be described thus: biochemical. Type of test: biochemical.
A further test concerns the target BaLF (Bacillus anthracis, UniProt P15917). Type of test: biochemical.
The target in a further test is BoNT/A LC (Clostridium botulinum, UniProt P0DPI0). Description: biochemical. In kind it is biochemical, Clostridium bolulinum.

Structures can show the parent of a compound that is named as a salt. Where two headings read alike, the source gives them in different places. Where only a bound is given, the exact number is not on record here.

Chain of Bacillus anthracis lethal factor (P15917 34-809 limits assumed): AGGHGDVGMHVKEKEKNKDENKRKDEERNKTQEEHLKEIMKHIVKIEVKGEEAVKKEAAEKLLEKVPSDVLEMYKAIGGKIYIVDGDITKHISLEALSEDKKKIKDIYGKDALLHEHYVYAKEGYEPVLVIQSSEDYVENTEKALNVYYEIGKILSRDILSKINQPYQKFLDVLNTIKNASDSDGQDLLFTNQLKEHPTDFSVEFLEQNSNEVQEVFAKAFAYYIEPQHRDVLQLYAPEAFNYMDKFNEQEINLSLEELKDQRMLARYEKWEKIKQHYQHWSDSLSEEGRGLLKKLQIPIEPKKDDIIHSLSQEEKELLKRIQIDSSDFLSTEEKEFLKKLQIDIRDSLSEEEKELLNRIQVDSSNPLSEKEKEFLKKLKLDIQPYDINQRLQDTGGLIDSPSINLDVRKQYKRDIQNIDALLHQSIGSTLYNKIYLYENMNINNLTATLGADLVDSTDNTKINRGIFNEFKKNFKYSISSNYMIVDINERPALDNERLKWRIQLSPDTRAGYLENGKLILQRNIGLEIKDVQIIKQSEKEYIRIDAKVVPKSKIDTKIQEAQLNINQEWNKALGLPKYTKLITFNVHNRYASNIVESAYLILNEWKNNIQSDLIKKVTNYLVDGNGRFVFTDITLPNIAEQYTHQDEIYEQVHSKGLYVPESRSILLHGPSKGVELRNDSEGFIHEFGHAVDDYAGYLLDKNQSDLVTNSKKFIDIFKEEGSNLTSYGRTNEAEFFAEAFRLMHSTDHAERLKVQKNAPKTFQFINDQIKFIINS
Chain of BaLF (P15917 34-809 limits assumed): as above
Chain of BoNT/A LC (P0DPI0 2-448 limits assumed): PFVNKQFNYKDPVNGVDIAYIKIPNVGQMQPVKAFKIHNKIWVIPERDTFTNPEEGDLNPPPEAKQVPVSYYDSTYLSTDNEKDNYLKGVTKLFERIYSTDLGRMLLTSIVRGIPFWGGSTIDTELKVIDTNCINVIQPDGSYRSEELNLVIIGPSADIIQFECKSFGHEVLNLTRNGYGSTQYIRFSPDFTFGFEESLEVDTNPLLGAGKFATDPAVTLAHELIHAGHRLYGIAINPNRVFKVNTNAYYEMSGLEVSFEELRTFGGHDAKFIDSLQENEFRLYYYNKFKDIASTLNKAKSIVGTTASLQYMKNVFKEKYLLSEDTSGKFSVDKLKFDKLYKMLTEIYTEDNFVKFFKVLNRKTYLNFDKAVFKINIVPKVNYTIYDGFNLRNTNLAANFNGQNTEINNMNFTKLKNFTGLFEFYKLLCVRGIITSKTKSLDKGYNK

`Cc1cc(N)c2cc(NC(=O)Nc3ccc4nc(C)cc(N)c4c3)ccc2n1` [Compound 1]: in test [1], the IC50 was over 100 µM. Consider `Cc1cc(N)c2cc(NC(=O)CCc3ccccc3C)ccc2n1` [Compound 18aa, N-(4-Amino-2-methylquinolin-6-yl)-3-(2-methylphenyl)propionamide trifluoroacetate], for which the “LF inhibitory activity (in words)” value in test [2] was “inactive”. On the same count and under the same terms, the same measure for `COc1ccc(Br)cc1CCC(=O)Nc1ccc2nc(C)cc(N)c2c1` [Compound 18ee, N-(4-Amino-2-methylquinolin-6-yl)-3-(5-bromo-2-methoxyphenyl)propionamide trifluoroacetate]: “inactive”; for `COc1ccc(Cl)cc1CCC(=O)Nc1ccc2nc(C)cc(N)c2c1` [Compound 18ff, N-(4-Amino-2-methylquinolin-6-yl)-3-(5-chloro-2-methoxyphenyl)propionamide trifluoroacetate]: “inactive”. The same measure, in the same setting: the same measure for `CCOc1ccccc1CCC(=O)Nc1ccc2nc(C)cc(N)c2c1` [Compound 18ii, N-(4-Amino-2-methylquinolin-6-yl)-3-(2-ethoxyphenyl)propionamide trifluoroacetate]: “activity was also totally lost”. Regarding `Cc1cc(N)c2cc(NC(=O)c3ccc(-c4ccc5ncccc5c4)cc3)ccc2n1` [Compound 18m, N-(4-Amino-2-methylquinolin-6-yl)-4-(quinoline-6-yl)benzamide trifluoroacetate], the “mechanism of inhibition on BaLF activity” value on BaLF is on record as “noncompetitive”. On to `COc1ccncc1CCC(=O)Nc1ccc2nc(C)cc(N)c2c1` [Compound 18oo, N-(4-Amino-2-methylquinolin-6-yl)-3-(4-methoxypyridin-3-yl)propionamide], for which the “LF inhibitory activity (in words)” value in test [2] is recorded as “devoid of activity”. As to `COc1ccsc1CCC(=O)Nc1ccc2nc(C)cc(N)c2c1` [Compound 18pp, N-(4-Amino-2-methylquinolin-6-yl)-3-(3-methoxythiophene-2-yl)propionamide trifluoroacetate], the “LF inhibitory activity (in words)” value in test [2] is on record as “devoid of activity”. For `COc1ccccc1CCC(=O)Nc1ccc2nc(C)cc(N)c2c1` [Compound 18t, N-(4-Amino-2-methylquinolin-6-yl)-3-(2-methoxyphenyl)propionamide trifluoroacetate], the “mechanism of inhibition on BaLF activity” value on BaLF is “noncompetitive”. For the molecule `COc1ccc(CCC(=O)Nc2ccc3nc(C)cc(N)c3c2)cc1` [Compound 18u, N-(4-Amino-2-methylquinolin-6-yl)-3-(4-methoxyphenyl)propionamide p-toluenesulfonate], the “LF inhibitory activity (in words)” value in test [2] is listed as “LF inhibitory activity was lost”. As for `COc1cccc(CCC(=O)Nc2ccc3nc(C)cc(N)c3c2)c1` [Compound 18v, N-(4-Amino-2-methylquinolin-6-yl)-3-(3-methoxyphenyl)propionamide trifluoroacetate], in test [2], the “LF inhibitory activity (in words)” value is listed as “LF inhibitory activity was lost”. The same measure, in the same setting: under `COc1ccc(OC)c(CCC(=O)Nc2ccc3nc(C)cc(N)c3c2)c1` [Compound 18w, N-(4-Amino-2-methylquinolin-6-yl)-3-(2,5-dimethoxyphenyl)propionamide p-toluenesulfonate] stands “complete loss of activity”. On the same count and under the same terms, under `COc1cccc(CCC(=O)Nc2ccc3nc(C)cc(N)c3c2)c1OC` [Compound 18x, N-(4-Amino-2-methylquinolin-6-yl)-3-(2,3-dimethoxyphenyl)propionamide p-toluenesulfonate] stands “complete loss of activity”.

With `Cc1cc(N)c2cc(NC(=O)CCc3ccccc3OC(=O)c3ccccc3)ccc2n1` [Compound 18y, N-(4-Amino-2-methylquinolin-6-yl)-3-(2-benzoyloxyphenyl)propionamide trifluoroacetate], in test [2], the “LF inhibitory activity (in words)” value was “inactive”. The same measure, in the same setting: under `Cc1cc(N)c2cc(NC(=O)CCc3ccccc3Cl)ccc2n1` [Compound 18z, N-(4-Amino-2-methylquinolin-6-yl)-3-(2-chlorophenyl)propionamide trifluoroacetate] stands “inactive”. With `Cc1cc(N)c2cc(NC(=O)Nc3ccc4c(c3)OCO4)ccc2n1` [Compound 20a, 1-(4-Amino-2-methylquinolin-6-yl)-3-(benzo[d][1,3]dioxol-5-yl)urea trifluoroacetate], the IC50 was found to be 87 µM in test [2] and 51 µM against BoNT/A LC. In test [2], `COc1cc(-c2cccnc2)ccc1CCC(=O)Nc1ccc2nc(C)cc(N)c2c1` [Compound 35, N-(4-Amino-2-methylquinolin-6-yl)-3-(2-methoxy-4-(pyridin-3-yl)phenyl)propanamide] gave an IC50 of 55 µM. Regarding “N-(4-Amino-2-methylquinolin-6-yl)isoquinoline-3-carboxamide trifluoroacetate [Compound 18h]”, the IC50 on BoNT/A LC (read-out: IC50 BoNT/A) was over 100 µM. As to “N-(4-Amino-2-methylquinolin-6-yl)quinoline-2-carboxamide trifluoroacetate [Compound 18g]”, the IC50 in test [2] (read-out: IC50 LF) was 52 µM.
